Laboratory results from PMC7413254 (Nature Communications, 2020).

Legend:
Format in all cases: cell-based
[1] = molecular target: T1, PfCRT^Dd2 (Plasmodium falciparum, UniProt Q9N623, A220S/I356T/K76T/M74I/N326S/N75E/Q271E/R371I); experiment: [3H]CQ uptake into Xenopus oocytes, cis-inhibition by unlabelled solute; conditions: PfCRTDd2 oocytes, background [3H]CQ accumulation subtracted, normalised to oocyte type control
From the text: (§1) The orientation of PfCRT in the parasite’s DV membrane, and also in the oocyte plasma membrane, is such that its N- and C-termini extend into the cytosol. The oocytes were suspended in a reaction buffer adjusted to pH 5.5 to mimic the pH of the DV lumen[1],[2]. In this scenario, the transport of a substrate via PfCRT from the acidic extracellular solution into the oocyte cytosol[15] is analogous to the parasite’s PfCRT-mediated efflux of a substrate from the acidic DV and into the cytosol. Unless specified otherwise, this is the direction in which substrate transport was measured in the oocyte assays.
(§2) Unless specified otherwise, the transport assays were conducted over 1.5 h at 27.5 °C and the reaction buffer was ND96 (96 mM NaCl, 2 mM KCl, 1 mM MgCl2, 1.8 mM CaCl2, 10 mM MES and 10 mM Tris-base) at pH 5.5.
(§3) Ten oocytes were washed twice with the relevant ND96 buffer. […] The assay was terminated by removing the reaction buffer and washing the oocytes with ice-cold ND96 buffer. The oocytes were lysed in 10% (w/v) sodium dodecyl sulfate (SDS) and the radioactivity accumulated within each oocyte was measured with a MicroBeta^2 microplate liquid scintillation analyser (PerkinElmer).
(§4) At least four independent experiments were performed (on different days and using oocytes from different frogs), and within each experiment measurements were made from ten oocytes per treatment.

[2] = molecular target: T2, PfCRT^Ecu1110 (Plasmodium falciparum, UniProt Q9N623, A220S/I356L/K76T/N326D); experiment: as above; conditions: for PfCRT-mediated [3H]CQ transport, cis-inhibition (% PfCRTEcu1110 control): PfCRTEcu1110 oocytes, background [3H]CQ accumulation subtracted, normalised to oocyte type control; for [3H]CQ transport (% PfCRTEcu1110 control), cis-inhibition, PfCRTEcu1110: PfCRT-mediated component (background subtracted), sheet title says normalised to PfCRTDd2 control, mean ± SEM, SEM
From the text: as §1, §2, §3, §4

[3] = molecular target: PfCRT^3D7 (Plasmodium falciparum, UniProt Q8IBZ9); experiment: cell-based; conditions: PfCRT3D7 oocytes, normalised to oocyte type control
Procedure: as §2
(§5) The intracellular concentrations were calculated using previous estimates of the volume of stage V–VI oocytes (~400 nL[60]). […] The oocytes were injected with VF-6 suspended in 25 nL ND96 buffer adjusted to pH 5.0, 5.5, 6.0 or 7.0, which corresponded to the injection of 2.5–250 fmol of H^+. The Na^+-dependence of the trans-stimulatory effect of VF-6 was assessed by injecting the oocytes with VF-6 suspended in ND96 buffer (pH 5.5) or a Na^+-free version of this buffer (the Na^+ was replaced with choline).
as §4

[4] = molecular target: T1, PfCRT^Dd2; experiment: cell-based; conditions: for PfCRT-mediated [3H]CQ transport, trans-stimulation (% PfCRTDd2 control): PfCRTDd2 oocytes, normalised to oocyte type control; for [3H]CQ transport (% PfCRTDd2 control), trans-stimulation, PfCRTDd2: PfCRT-mediated component (background subtracted), mean ± SEM, SEM
Procedure: as §2, §5, §4

[5] = molecular target: T2, PfCRT^Ecu1110; experiment: cell-based; conditions: for PfCRT-mediated [3H]CQ transport, trans-stimulation (% PfCRTEcu1110 control): PfCRTEcu1110 oocytes, normalised to oocyte type control; for [3H]CQ transport (% PfCRTDd2 control), trans-stimulation, PfCRTEcu1110: PfCRT-mediated component (background subtracted), sheet title says normalised to PfCRTDd2 control, mean ± SEM, SEM
Procedure: as §2, §5, §4

[6] = [test solute]i = 5 mM (intracellular)
[7] = [test solute]i = 45 mM (intracellular; 30 mM for some solutes due to solubility)
[8] = [test solute]i = 5 mM (injected)
[9] = [test solute]i = 45 mM (30 mM for some solutes due to solubility)

T1 sequence (Q9N623 whole entry A220S/I356T/K76T/M74I/N326S/N75E/Q271E/R371I): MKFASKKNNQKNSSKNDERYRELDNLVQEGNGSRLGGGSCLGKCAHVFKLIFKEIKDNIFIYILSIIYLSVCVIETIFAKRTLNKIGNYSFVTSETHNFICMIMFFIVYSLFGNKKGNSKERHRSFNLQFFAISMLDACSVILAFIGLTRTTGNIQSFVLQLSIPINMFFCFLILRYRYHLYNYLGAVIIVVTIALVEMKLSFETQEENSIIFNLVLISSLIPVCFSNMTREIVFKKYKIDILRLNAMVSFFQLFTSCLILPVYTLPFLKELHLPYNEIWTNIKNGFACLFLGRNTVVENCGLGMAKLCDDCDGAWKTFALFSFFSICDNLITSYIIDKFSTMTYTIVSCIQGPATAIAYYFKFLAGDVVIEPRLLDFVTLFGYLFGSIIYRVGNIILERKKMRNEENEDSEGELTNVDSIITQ
T2 sequence (Q9N623 whole entry A220S/I356L/K76T/N326D): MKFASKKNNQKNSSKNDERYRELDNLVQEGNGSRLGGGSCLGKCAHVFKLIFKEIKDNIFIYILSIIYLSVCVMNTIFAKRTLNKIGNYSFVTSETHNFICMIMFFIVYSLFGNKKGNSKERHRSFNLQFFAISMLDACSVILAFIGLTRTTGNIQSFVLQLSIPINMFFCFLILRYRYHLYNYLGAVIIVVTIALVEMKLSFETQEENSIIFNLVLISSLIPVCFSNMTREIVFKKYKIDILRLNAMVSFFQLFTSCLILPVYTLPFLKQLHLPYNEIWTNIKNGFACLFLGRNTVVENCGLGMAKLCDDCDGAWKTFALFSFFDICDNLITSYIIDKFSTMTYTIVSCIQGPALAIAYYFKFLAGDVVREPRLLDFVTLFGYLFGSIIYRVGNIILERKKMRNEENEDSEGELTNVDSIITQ
PfCRT^3D7, sequence (Q8IBZ9 59-398): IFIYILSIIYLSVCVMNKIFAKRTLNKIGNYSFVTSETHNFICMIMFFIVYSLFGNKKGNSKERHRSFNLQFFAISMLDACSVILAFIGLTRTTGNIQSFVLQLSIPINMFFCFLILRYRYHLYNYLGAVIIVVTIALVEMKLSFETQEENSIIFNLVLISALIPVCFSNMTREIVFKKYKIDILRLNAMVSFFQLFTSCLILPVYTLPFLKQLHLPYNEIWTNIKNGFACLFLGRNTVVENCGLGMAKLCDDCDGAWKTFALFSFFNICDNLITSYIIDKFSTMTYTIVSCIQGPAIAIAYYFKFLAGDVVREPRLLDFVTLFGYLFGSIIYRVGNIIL

Row | Substance | PfCRT-mediated [3H]CQ transport, cis-inhibition (% PfCRTDd2 control) ([1]; [test solute] = 0.5 mM) | PfCRT-mediated [3H]CQ transport, cis-inhibition (% PfCRTDd2 control) ([1]; [test solute] = 1 mM) | PfCRT-mediated [3H]CQ transport, cis-inhibition (% PfCRTDd2 control) ([1]; [test solute] = 2 mM) | PfCRT-mediated [3H]CQ transport, cis-inhibition (% PfCRTEcu1110 control) ([2]; [test solute] = 0.5 mM) | PfCRT-mediated [3H]CQ transport, cis-inhibition (% PfCRTEcu1110 control) ([2]; [test solute] = 1 mM) | PfCRT-mediated [3H]CQ transport, cis-inhibition (% PfCRTEcu1110 control) ([2]; [test solute] = 2 mM) | [3H]CQ transport (% PfCRTEcu1110 control), cis-inhibition, PfCRTEcu1110 ([2]; [test solute] = 0.5 mM) [% PfCRTEcu1110 control] | [3H]CQ transport (% PfCRTEcu1110 control), cis-inhibition, PfCRTEcu1110 ([2]; [test solute] = 1 mM) [% PfCRTEcu1110 control] | [3H]CQ transport (% PfCRTEcu1110 control), cis-inhibition, PfCRTEcu1110 ([2]; [test solute] = 2 mM) [% PfCRTEcu1110 control] | PfCRT-mediated [3H]CQ transport, trans-stimulation (% PfCRT3D7 control) [3, 6] [% PfCRT3D7 control] | PfCRT-mediated [3H]CQ transport, trans-stimulation (% PfCRT3D7 control) [3, 7] [% PfCRT3D7 control] | PfCRT-mediated [3H]CQ transport, trans-stimulation (% PfCRTDd2 control) [4, 6] [% PfCRTDd2 control] | PfCRT-mediated [3H]CQ transport, trans-stimulation (% PfCRTDd2 control) [4, 7] [% PfCRTDd2 control] | [3H]CQ transport (% PfCRTDd2 control), trans-stimulation, PfCRTDd2 [4, 8] [% PfCRTDd2 control] | [3H]CQ transport (% PfCRTDd2 control), trans-stimulation, PfCRTDd2 [4, 9] [% PfCRTDd2 control] | PfCRT-mediated [3H]CQ transport, trans-stimulation (% PfCRTEcu1110 control) [5, 6] [% PfCRTEcu1110 control] | PfCRT-mediated [3H]CQ transport, trans-stimulation (% PfCRTEcu1110 control) [5, 7] [% PfCRTEcu1110 control] | [3H]CQ transport (% PfCRTDd2 control), trans-stimulation, PfCRTEcu1110 [5, 8] [% PfCRTEcu1110 control] | [3H]CQ transport (% PfCRTDd2 control), trans-stimulation, PfCRTEcu1110 [5, 9] [% PfCRTEcu1110 control]
1 | FPHFDLS [FS-7] | 30 ± 3.7 | 19 ± 0.7 | 11 ± 0.7 | 39 ± 2.5 | 31 ± 1.7 | 17 ± 0.8 | 12 ± 0.4 | 10 ± 0.2 | 5.0 ± 0.04 | 96 ± 4.6 | 99 ± 2.7 | 95 ± 4.2 | 98 ± 4.1 | 95 ± 4.2 | 98 ± 4.1 | 99 ± 3.6 | 98 ± 4.3 | 30 ± 1.3 | 30 ± 1.4
2 | EFTPPVQA [EA-8] |  | 27 ± 0.9 | 18 ± 0.2 | 58 ± 1.1 | 43 ± 1.6 | 29 ± 2.5 |  |  |  | 131 ± 2.9 | 174 ± 3.3 | 97 ± 2.2 | 98 ± 1.9 |  |  | 127 ± 3.1 | 136 ± 4.1 |  | 
3 | HVDDMPN [HN-7] | 37 ± 1.7 | 20 ± 0.5 | 9.2 ± 1.1 | 36 ± 1.6 | 31 ± 3.5 | 21 ± 1.3 | 11 ± 0.6 |  | 7.0 ± 0.05 | 142 ± 4.5 | 187 ± 4.5 | 100 ± 3.2 | 98 ± 3.5 | 100 ± 3.2 | 98 ± 3.5 | 132 ± 4.3 | 140 ± 4.2 | 40 ± 2.5 | 42 ± 2.4
4 | PHFDLS [PS-6] | 46 ± 1.0 | 32 ± 1.1 | 17 ± 0.3 | 41 ± 2.5 | 33 ± 1.7 | 21 ± 1.6 |  |  | 7.0 ± 0.01 | 140 ± 4.3 | 188 ± 4.5 | 96 ± 4.7 | 95 ± 4.6 | 96 ± 4.7 | 95 ± 4.6 | 121 ± 4.5 | 138 ± 4.6 | 37 ± 1.4 | 43 ± 1.3
5 | KEFTPPVQA [KA-9] | 48 ± 2.0 | 32 ± 2.1 | 7 ± 0.1 | 48 ± 2.1 | 41 ± 2.1 | 30 ± 1.1 |  |  |  | 130 ± 2.2 | 160 ± 3.9 | 98 ± 2.2 | 98 ± 1.7 |  |  | 98 ± 2.8 | 98 ± 2.0 |  | 
